In this test the test system is Malassezia furfur strain DSM6171. Briefly: MIC value measurement by agar dilution method against Malassezia furfur. Format: cell-based, Malassezia furfur (synonym: Pityrosporum ovale). Particulars: for factor by which activity is greater than that of 1,2-octanediol: ratio of MIC values versus 1,2-octanediol (MIC 225 ppm); for factor by which activity is greater than that of 1,2-octanediol / MIC: Malassezia furfur; for MIC: DSM6171, 72 h. The procedure: The antimicrobial action of the alkane-1,2-diols against Malassezia furfur was determined by means of the agar dilution method in accordance with DIN 58 940/ICS and DIN 58 944/ICS. Malassezia furfur strain DSM6171 was used as the test organism. Petri dishes having a diameter of 9 cm and containing 8.7 ml of freshly prepared Mueller-Hinton agar (Merck, art. 1.05437) kept liquid at 50° C. and containing 3% Tween 80 (Merck, art. 8.2217) were used. In order to prepare the test concentrations, ethanolic stock solutions of the alkane-1,2-diol samples were diluted with 96% ethanol until the following final test concentrations of the alkane-1,2-diols in the Mueller-Hinton agar were present: 25,000 ppm, 12,500 ppm, 6300 ppm, 3600 ppm, 1800 ppm, 1100 ppm, 900 ppm, 450 ppm, 225 ppm, 112 ppm, 56 ppm, 28 ppm, 14 ppm, 7 ppm, 4 ppm. 2 agar plates were cast per test concentration and nutrient medium. After solidification and drying (about 1 hour at 37° C.), the test plates were inoculated punctually with in each case 1 μl of the Malassezia furfur (DSM 6171-2.8×10^7 KBE/ml) test organism suspensions. The inoculated plates were subsequently incubated for 72 hours at 30° C. and then evaluated. The lowest active ingredient concentration at which, macroscopically, no growth is present was regarded as the MIC (minimum inhibitory concentration). The MIC values of the alkane-1,2-diols listed in Table 1 were determined in accordance with the general test conditions.
On the technique in general: In agar dilution, organisms are placed on agar that contains the substance at set levels.

The mark [1] stands for this setting: agar dilution, Mueller-Hinton agar with 3% Tween 80, 72 hours at 30° C., lowest concentration with no macroscopic growth.

Converted amounts (≈) assume the structure as drawn. Bounds are passed on as bounds.

As for `CCCCCCCCCCC(O)CO` (stereo not shown) [1,2-Dodecanediol], the “factor by which activity is greater than that of 1,2-octanediol” value (from here on “factor”) is on record as “about 16”.

For orientation: MIC means the lowest concentration that inhibits growth of the organism. `CCCC(O)CO` (stereo not shown) [1,2-Pentanediol] gave an MIC under setting [1] of 25000 mg/L (≈ 240 mM).

As to `CCCCCCCCCCCCCCC(O)CO` (stereo not shown) [1,2-Hexadecanediol], it took 1100 mg/L (≈ 4.26 mM) to inhibit growth under setting [1] (MIC).

With `CCCCCCCCC(O)CO` (stereo not shown) [1,2-Decanediol], the “factor” value is reported as “about 8”.

For `CCCCC(O)CO` (stereo not shown) [1,2-Hexanediol], the MIC under setting [1] was 12500 mg/L (≈ 106 mM).

In turn, `CCCCCCC(O)CO` (stereo not shown) [1,2-Octanediol] displayed an MIC under setting [1] of 225 mg/L (≈ 1.54 mM).

Consider `CCCCCCCCCCCCCCCCC(O)CO` (stereo not shown) [1,2-Octadecanediol], for which, under setting [1], the MIC is > 1100 mg/L and the MIC value is recorded as >1100 ppm.

Regarding `CCCCCCCCCCCCC(O)CO` (stereo not shown) [1,2-Tetradecanediol], the “factor” value is listed as “at least 32”. Under setting [1], the MIC was < 7 mg/L.
